Results reported in PMC9839507 (ACS applied materials & interfaces, 2022).

Test system: orthotopic U87MG-luc glioma
Type: in vivo, BALB/c nude mice

CC1(C)C(/C=C/C=C/C=C/C=C2\N(CCCCS(=O)(=O)O)c3ccc4ccccc4c3C2(C)C)=[N+](CCCCS(=O)(=O)[O-])c2ccc3ccccc3c21 [ICG, indocyanine green, reference compound]
detection in orthotopic glioma by fluorescent imaging (2 h after i.v. injection, 30 nmol, n = 3): detected | ICG signal at the tumor site by tissue fluorescence imaging (Figure S9): slightly detectable | ex vivo fluorescent signals in tumors (brains harvested at 72 h postinjection): undetectable
